Laboratory results: patent US11879145B2, “Reagents and methods for replication, transcription, and translation in semi-synthetic organisms” (The Scripps Research Institute, priority 2019, dated 2024)

What was measured:
sfGFP^151(AXC) [1] = assay: In vivo translation screen of XTPs/YTPs: total sfGFP fluorescence; type: cell-based, E. coli
Procedure: (§1) In vivo Translation Screen of XTPs/YTPs. An overnight culture of the SSO strain ML2 carrying the pGEX-MbPylRS TetR plasmid was grown in 2×YT supplemented with 50 mM potassium phosphate, […] chloramphenicol and 100 μg/mL carbenicillin (herein referred to in this section as “media”), then diluted back to an OD600 of 0.03 in the same media and grown to an OD600 of 0.4 to 0.6. The culture was then chilled with shaking over ice-water for 15 minutes then pelleted by centrifugation at 3,200×g for 10 min. Cells were then resuspended and washed with ice-cold ddH2O twice then resuspended in ice-cold ddH2O to OD600 of 55-65. The electrocompetent cells (50 μL) and 1 ng of Golden Gate assembled plasmid with the UBP within the sfGFP and tRNAPyl genes (see Golden Gate Assembly of Plasmids) were transferred to a pre-chilled electroporation cuvette (0.2-cm-gap), then electroporated (Gene Pulser II; Bio-Rad) according to manufacturer's recommendations (voltage […], capacitor 2.5 μF, resistor 200Ω), and then immediately diluted with 950 μL of media. An aliquot (40 μL) of the transformation was then diluted five-fold in media supplemented with dCNMOTP (25 μM) and dTPT3TP (10 μM) for a final volume of 200 μL then allowed to recover for 1 h shaking at 37° C. Two-fold dilutions of the recovery were plated onto solid media supplemented with zeocin (50 μg/mL), dCNMOTP (10 μM), dTPT3TP (10 μM), and agar (2% w/v), then grown at 37° C. for 18 h. Single colonies were picked and grown in media (300 μL) supplemented with 50 μg/mL zeocin and provided dCNMOTP (25 μM) and dTPT3TP (10 μM) (herein afterward referred to in this section as “growth media”). The culture was monitored for cell growth (Envision 2103 Multilabel Plate Reader with a 590/20 nm filter) and then collected at an OD600˜1.0. An aliquot (50 μL) was subjected to plasmid isolation using the ZR Plasmid Prep Kit (Zymo Research). Isolated plasmids were then subjected to the streptavidin gel shift assay described below (using primers P3-4 and P5-6, Table S1) to determine UBP retention.
(§2) A colony with excellent UBP retention was then diluted to an OD600˜0.01 in growth media and grown to OD600˜0.4-0.6. This culture was then divided into multiple 300 μL cultures and for the screen of XTP analogs, each was provided with the corresponding XTP (at either 25 μM or 250 μM) or ddH2O for “−XTP” samples, TPT3TP (30 μM), and AzK (10 mM). For the screen of YTP analogs, each 300 μL culture was provided with the corresponding YTP (at either 25 μM or 250 μM) or ddH2O for “−YTP” samples, NaMTP (250 μM), and AzK (10 mM). Samples were shielded from light after addition of AzK to prevent photodegradation. These samples were then grown at 37° C. for 20 min before adding 1 mM IPTG and grown at 37° C. for an additional 1 h to induce T7 RNAP and transcription of tRNAPyl and PylRS. From this point on, cells were monitored for growth and fluorescence. Expression of sfGFP was then induced with anhydrotetracycline (100 ng/mL). After an additional 3 h of growth at 37° C., cells were collected (230 μL for affinity purification of sfGFP), cooled, and then pelleted and stored at −80° C. before protein purification.
An SAR analysis was initiated with NaMTP and the nine XTP analogs. Based on performance in the dXTP screen described above, and to eliminate variable loss at the DNA level as a complicating factor, the unnatural information was encoded with the dCNMO-dTPT3 UBP. Additionally, the E. coli strain ML2, which expresses the nucleoside triphosphate transporter PtNTT2, but has also been genetically engineered for higher fidelity replication of the UBP by deletion of the gene encoding RecA (as is common in cloning strains) and overexpression of DNA Pol II was used. The same plasmid described above in Examples 1A and 1, harboring sfGFP^151(AXC) and tRNA^Pyl(GYT), was used, and to focus the screen to a single unnatural ribonucleotide, the M. mazei Pyl tRNA was transcribed in the presence of 30 μM TPT3TP. […]

sfGFP^151(AXC) [2] = assay: In vivo translation screen of XTPs/YTPs: protein shift (AzK incorporation) by DBCO-TAMRA western blot; type: cell-based, E. coli; details: TPT3TP 30 μM, dCNMO-dTPT3 UBP, strain ML2
Procedure: as §1, §2
Affinity Purification of sfGFP. Cell pellets collected from translation experiments were resuspended in BugBuster (100 μL 1×, EMD Millipore) and shaken at room temperature for 15 min. […]

Compound: COc1cc(C)c(F)cc1[C@@H]1O[C@H](COP(=O)(O)OP(=O)(O)OP(=O)(O)O)[C@@H](O)[C@H]1O [Compound 5FMTP]
- More fluorescence than MMO2TP (sfGFP^151(AXC) [1]; XTP 25 μM): 34%
- Bulk fluorescence compared to cells grown with NaMTP at the same concentration (sfGFP^151(AXC) [1]; XTP 250 μM): 90%
- sfGFP protein gel shift (ncAA incorporation) (sfGFP^151(AXC) [2]; XTP 25 μM): 94%
- sfGFP protein gel shift (ncAA incorporation) (sfGFP^151(AXC) [2]; XTP 250 μM): 98%
